Results from PMC6305398, “Red Fluorescent Chlamydia trachomatis Applied to Live Cell Imaging and Screening for Antibacterial Agents” (Frontiers in Microbiology, 2018).
Values after ≈ are worked out from the molar mass of the structure shown. Read-outs that look alike come from different tables or passages of the source.

Legend:
[1] = test system: mCherry expressing C. trachomatis serovar L2 454/Bu; assay: Primary screen of natural compound library, Chlamydia inclusion count (mCherry imaging and FITC immunostaining in duplicate plates); assay type: cell-based, Chlamydia trachomatis; conditions: for inhibition at 10 µM: Chlamydia trachomatis, 48 hpi, HeLa cells, vs DMSO control
Protocol: A general and more detailed protocol for the screening assay is provided in (Supplementary Data Sheet 1) and an overview of the screening method is given in Figure 3. Since inhalation of C. trachomatis aerosols can cause laboratory acquired infections (Sewell, [1995]), all procedures involving handling of live infection in open plates were performed manually inside a class II safety cabinet using 8-channel electronic pipets (Rainin E4 XLS, Mettler Toledo, Barcelona, Spain) and an enclosed aspiration system (Intergra VacuSafe, Zizers, Switzerland).
The primary screen of the 349 open access compound library was performed using the mCherry expressing C. trachomatis serovar L2 454/Bu in clear, flat 96-well plates (Nunc, Delta surface, Thermo Fischer Scientific). The primary screen was done in duplicates in separated plates; one plate was used for mCherry imaging and the other for FITC immunostaining. Cells were seeded at a density of 10,000 cells per well in 100 μl DMEM media 1 day prior to infection in culture media. Chlamydia infection was performed in 30 μl HBSS as described above with a MOI of 0.6 during 1 h at 37°C, 5% CO2. Compounds were diluted to 10 μM in DMEM with a final DMSO concentration of 0.5% and 100 μl per well was added after aspiration of HBSS. The plates were incubated for an additional 47 h at 37°C, 5% CO2 prior to imaging. One of the duplicate plates was used for mCherry imaging and one for FITC immunostaining. For mCherry imaging, HeLa cell nuclei were first stained by addition of 10 μl […] Hoechst per well and incubated at 37°C with 5% CO2 for 20 min. The infected cells were fixed in 4% paraformaldehyde (PFA) for 15 min and washed in PBS before image acquisition. Although fixation was not necessary for the analysis, it inactivated the infectious Chlamydia and enabled later analysis after storage at 4°C. For FITC immunostaining, cells were fixed in 150 μl methanol per well for 10 min, blocked in 1% BSA, 0.25% Tween-20 in PBS and incubated with 1:1,000 polyclonal rabbit anti-chlamydial serum in blocking buffer (Marwaha et al., [2014]). A FITC-conjugated donkey anti-rabbit antibody (Jackson ImmunoResearch) and 1 μg/ml Hoechst staining was used for staining followed by washing with blocking buffer. Images of nuclei (Hoechst-ex386/23 nm) and Chlamydia inclusions (FITC: ex485/20 nm; mCherry: ex549/15 nm) were acquired in the ArrayScan with the 10x objective and counted with the built in software. Chlamydia inclusions in DMSO control wells were used to determine an inclusion size cutoff to exclude small underdeveloped inclusions as well as fluorescent artifacts from the analyses.

in vitro = assay type: cell-based; conditions: human, 48 h, percent of DMSO control; for viability at 25 µM: read-out: HeLa cell viability at 25 μM (%); for viability at 50 µM: read-out: HeLa cell viability at 50 μM (%) (converted)
Protocol: (§1) HeLa299 cells were inoculated into clear, flat 96-well plates (Nunc, Delta surface, Thermo Fischer Scientific) with a density of 7,000 cells per well and cultured overnight at 37°C with 5% CO2 in […] supplemented with 10% FBS and 2 mM L-glutamine. The following day, the RPMI was replaced with DMEM without phenol red (Life Technologies, Carlsbad, CA, USA) containing 0.5% DMSO with or without test compounds at 25 and 50 μM concentrations incubated at 37°C with 5% CO2 for 48 h. At least three replicate wells for each compound concentration were tested. Wells without cells were used as blank controls. Following this incubation with compounds, cells were washed with DMEM to remove remaining colored compounds and fresh DMEM without phenol red was added before the XTT Cell Proliferation Assay kit was used according to the manufacturer's instructions (ATCC, Manassas, VA, USA). Briefly, activation reagent and XTT reagent were thawed at 37°C, then mixed in a 1:50 ratio with enough volume to add 50 μL to each well. The plates were placed in the 37°C incubator for 2.5 h. The absorbance of each well was then read at 475 nm and 660 nm with a Tecan Infinite m200 plate reader (Tecan, Männedorf, Switzerland). To analyze the data, the 660 nm reading was subtracted from the 475 nm reading to help eliminate non-specific readings from the assay results. Average blank control-well readings were subtracted from those containing cells. Final readings from wells containing compound were compared to DMSO control wells and expressed as percent of control.

HeLa cells = assay: in vitro; assay type: cell-based
Protocol: as §1

Staphylococcus aureus = conditions: ref Beattie et al., 2016; cited from earlier work
[2] = test system: Plasmodium falciparum parasites; conditions: antimalarial activity; ref Choomuenwai et al., 2012; cited from earlier work
mammalian cells = conditions: cited from earlier work
[3] = ref Davis et al., 2013; cited from earlier work
Trypanosoma brucei = conditions: ref Zulfiqar et al., 2017; cited from earlier work
T. cruzi = conditions: ref Zulfiqar et al., 2017; cited from earlier work
wt C. trachomatis = assay: Doxycycline susceptibility, large inclusion count after immunostaining; assay type: cell-based; conditions: Chlamydia trachomatis; wt strain, HeLa cells, 48 h, FITC immunostaining; read-out: EC50 with 95% confidence interval
[4] = test system: mCherry expressing C. trachomatis; assay: Doxycycline susceptibility, large inclusion count by live mCherry imaging; assay type: cell-based; conditions: Chlamydia trachomatis, HeLa, 48 h, read-out: EC50 with 95% confidence interval
Protocol: HeLa 299 cells, cultured to 70% confluence were harvested and seeded into 96-well plates (clear, flat, Nunclon Delta coated, Nunc, Thermo Fischer Scientific, Waltham, MA, USA) at a density of 10,000 per well in culture media (DMEM or RPMI 1640 supplemented with 10% FBS, 2 mM L-glutamine and 50 μg/ml gentamicin). After overnight incubation in 37°C with 5% CO2, adherent cells were infected with 30 μl mCherry expressing Chlamydia per well in HBSS with a multiplicity of infection (MOI) of 0.6. Chlamydia were incubated with the cells for 1 h at 37°C with 5% CO2 after which HBSS was removed and replaced with 100 μl culture media. DNA of host cell nuclei and Chlamydia inclusions were visualized by addition of 10 μl 10 μg/ml Hoechst 20 min prior to imaging. Live images were acquired 48 hpi in an automated HCS microscope (ArrayScan VTI, Thermo Fischer Scientific) using the 10x objective, excitation 549/15 nm for mCherry and excitation 386/23 nm for Hoechst. The number of large Chlamydia inclusions was enumerated using the built in software. An inclusion size cutoff was determined based on the 48 hpi Chlamydia inclusions to include normally developed Chlamydia inclusions and exclude fluorescent artifacts from the analyses. […] Large inclusions were counted by Arrayscan and EC50 values determined using GraphPad Prism v.5 (GraphPad software, La Jolla, CA, USA) with non-linear regression.

[5] = MOI 0.6, FITC immunostaining, read-out: Screen inhibition at 10 μM (%) FITC
[6] = MOI 0.6, mCherry detection, read-out: Screen inhibition at 10 μM (%) mCherry

Row | SMILES | inhibition at 10 µM [1, 5] [%] | inhibition at 10 µM [1, 6] [%] | Inhibition of Chlamydia growth ([1]; screen at 10 μM) | viability at 25 µM (in vitro) [%] | viability at 50 µM (in vitro) [%] | Reduction of HeLa cell viability (HeLa cells; 25 μM) [%] | minimum inhibitory concentration (MIC) (Staphylococcus aureus) [µM] | IC50 [2] [nM] | Toxic effects on mammalian cells (mammalian cells; ref Choomuenwai et al., 2012, Wang et al., 2015) | Toxicity to HeLa cells (authors' call) (HeLa cells; non-toxic = viability not below 70% of vehicle control at 25 μM) | In vitro antimalarial effect, active concentrations [3] | Inhibition of Trypanosoma brucei, active concentrations (Trypanosoma brucei) | Inhibition of T. cruzi, active concentrations (T. cruzi) | Toxicity in mammalian cells (mammalian cells; ref Davis et al., 2013) | EC50 (wt C. trachomatis) [nM] | EC50 [4] [nM]
1 | COC1=CC(=O)c2c(O)c3c(c(O)c2C1=O)C[C@](C)(O)C[C@@H]3O [Compound 5, (1S,3S)-austrocortirubin] | 0 | 13 | did not inhibit Chlamydia growth | 5 ± 0.5 | 5.5 | 95 | 100 (≈ 32 µg/mL) | 1900 | toxic effects |  |  |  |  |  |  | 
2 | NCCc1c[nH]c2c1C(=O)C1=C(NC=CS1(=O)=O)C2=O [Compound 10, thiaplakortone A] | 96 | 100 |  | 5 ± 0.4 | 5 ± 0.5 |  |  |  |  | toxic | low nanomolar concentrations | low micromolar concentrations | low micromolar concentrations | moderate toxicity |  | 
3 | C[C@H]1c2cccc(O)c2C(=O)C2=C(O)[C@]3(O)C(=O)C(C(N)=O)=C(O)[C@@H](N(C)C)[C@@H]3[C@@H](O)[C@@H]21 [doxycycline] |  |  |  |  |  |  |  |  |  |  |  |  |  |  | 54.4 | 32.8
